# Assay results taken from US12491271B2, “Positron emission tomography radiotracer for diseases associated with translocator protein overexpression, translocator protein-targeting ligand for fluorescence imaging-guided surgery and photodynamic therapy, and production methods therefor” (Seoul National University R&DB Foundation, priority 2018, dated 2025).
# Key:
# TSPO = TSPO (Homo sapiens, UniProt P30536); conditions: compared with earlier tracer [11C]PK11195, background art; cited from earlier work
# Sequence of TSPO (P30536 whole entry): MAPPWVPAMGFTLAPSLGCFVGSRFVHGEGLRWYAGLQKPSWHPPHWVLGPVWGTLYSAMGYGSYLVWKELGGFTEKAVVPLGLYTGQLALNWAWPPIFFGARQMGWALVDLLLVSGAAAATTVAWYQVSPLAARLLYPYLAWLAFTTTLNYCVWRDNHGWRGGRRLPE
# [1] = Measurement of lipophilicity (n-octanol / sodium phosphate buffer partition); assay type: physicochemical; conditions: n-octanol / sodium phosphate buffer 0.15 M, pH 7.4; measured five times; read-out: lipophilicity (ratio of counts per minute from n-octanol versus sodium phosphate buffer) (converted)
# Method: For the measurement of lipophilicity, [^18F]BS224 dispersed in 5% ethanol/saline was added to and mixed with n-octanol (5 mL) and sodium phosphate buffer (0.15 M, pH 7.4, 5.0 mL), and then lipophilicity was measured five times. Samples of each phase were counted for radioactivity, and the lipophilicity was expressed as the ratio of the counts per minute from n-octanol versus that of the sodium phosphate buffer. The lipophilicity of [^18F]BS224 was 2.78±0.4.
# [2] = In vitro stability in human serum; assay type: in vitro ADME; conditions: human serum mixed with 1% ethanol/water, 37° C., for up to 120 minutes
# Method: In an experiment on the in vitro stability of the fluorine-18-labeled PET radiotracer ([^18F]BS224) for targeting translocator protein overexpression, 0.4 mL of human serum was mixed with 0.4 mL of 1% ethanol/water containing the fluorine-18-labeled radiotracer ([^18F]BS224), and then the solution was incubated at 37° C. for 0, 10, 30, 60 and 120 minutes and then analyzed by thin film chromatography.
SMILES,higher uptake (TSPO),logD [1],stability of radiotracer in human serum (thin film chromatography) [2]
COc1ccc(OC)c(CN(C(C)=O)c2cc(F)ccc2Oc2ccccc2)c1 [[^11C]DAA1106],4 fold,,
"CCCN(CCC)C(=O)Cc1c(-c2ccc([18F])cc2)nc2c(Cl)cc(Cl)cn12 [[^18F]BS224, 2-(6,8-dichloro-2-(4-[^18F]fluorophenyl)imidazo[1,2-a]pyridin-3-yl)-N, N-dipropylacetamide]",,0.444,at least 98.7%
